This note sets out measurements from patent US20260294769A1, “ASCORBIC ACID DERIVATIVES AND COSMETIC THEREOF” (SEIWA KASEI COMPANY, LIMITED, priority 2023, published 2026).

Like-named read-outs stand apart in the source and are kept apart here.

What all share (assay type): physicochemical
Data set [1] is described as follows: Stability Test-2: odor of cream stored at 50° C. The note with it: 10 panelists. The text has this:
• Evaluation was made by 10 panelists according to the following criteria. • 3: Almost odorless. • 2: There is a slight strange odor. • 1: A strong odor is detected. • Based on the results of the above evaluation, the following classification was made: • ◯: Total score of 10 panelists is 25 or more • Δ: Total score of 10 panelists is 16-24 • x: The total score of 10 panelists is 15 or less
(§1) For each of the samples of Synthesis Examples 9 to 32, (a) and (b) shown in Table 12 were each heated and mixed. After cooling, (c) shown in Table 12 was added to prepare a cream with a pH of 7 or 9. […] The odor and coloration were also evaluated according to the same method and criteria as in Test Example 1. The results regarding the residual rate are shown in Tables 13 and 14, and the results regarding the odor and coloration are shown in Tables 15 and 16.

The nature of data set [2]: Stability Test-2: coloration of cream stored at 50° C. The settings on record: 10 panelists.
Excerpt: • Evaluation was made by 10 panelists according to the following criteria. • 3: Almost no change compared to immediately after preparation. • 2: Color changes compared to immediately after preparation. • 1: Strongly colored compared to immediately after preparation. • Based on the results of the above evaluation, the following classification was made:
as §1

Data set [3] is described as follows: Stability Test-2: residual rate in cream of pH 7 or 9 stored at 50° C. Here is the method: as §1
A short description of data set [4]: Stability Test-1: residual rate of 1% aqueous solutions stored at 50° C. (HPLC). The note with it: water, 1% aqueous solution; for remaining at 336 h: after 2 weeks, read-out: Residual Rate; for remaining at 672 h: after 4 weeks. The procedure:
For each of the samples of Synthesis Examples 1 to 6, 1% aqueous solutions were adjusted to pH 3, 5, 7, 8, and 9 with a dilute potassium hydroxide aqueous solution, and then placed in 50 mL screw tubes and sealed. […] Furthermore, the odor and coloration of the samples adjusted to pH 7 were evaluated based on the following methods and criteria, and the results are shown in Table 11.
• ⊚: 80% or more • ◯: 50% or more, less than 80% • Δ: 30% or more, less than 50% • x: Less than 30%

Setting [5] is: cream pH 7, 50° C., after 2 weeks, 20160 min.
[6] abbreviates: cream pH 7, 50° C., after 4 weeks, 40320 min.
Setting [7] is: cream pH 9, 50° C., after 2 weeks, 20160 min.
Where [8] appears, read: cream pH 9, 50° C., after 4 weeks, 40320 min.

For the compound `CCCCCCCCC(CCCCCC)C(=O)OC[C@H](OC(=O)C(CCCCCC)CCCCCCCC)[C@H]1OC(=O)C(OC(=O)C(CCCCCC)CCCCCCCC)=C1OC(=O)C(CCCCCC)CCCCCCCC` (stereo partly drawn) [Ascorbyl tetrahexyldecanoate, reference compound], the Odor entry in data set [1] (after 2 weeks) is “◯ (Total score of 10 panelists is 25 or more)”; in data set [1] (after 4 weeks), “Δ (Total score of 10 panelists is 16-24)”. In addition, the Coloration entry was “◯ (Total score of 10 panelists is 25 or more)” in data set [2] (after 2 weeks) and “Δ (Total score of 10 panelists is 16-24)” in data set [2] (after 4 weeks). Further, the “Residual Rate” value was “∘ (85% or more, less than 95%)” in data set [3] (setting [5]); “x (Less than 85%)” in data set [3] (setting [6]); “∘ (85% or more, less than 95%)” in data set [3] (setting [7]); “x (Less than 85%)” in data set [3] (setting [8]).
Turning to `CCCCCCCC(=O)OC[C@H](OC(=O)CCC)[C@H]1OC(=O)C2=C1OCCCCO2` [Synthesis Example 19, 5-O-butanoyl-6-O-octanoyl-2,3-O-(1,4-butanediyl) ascorbic acid], the Odor result is on record as “◯ (Total score of 10 panelists is 25 or more)” in data set [1] (after 2 weeks) and “Δ (Total score of 10 panelists is 16-24)” in data set [1] (after 4 weeks). Besides, the Coloration result in data set [2] (after 2 weeks) and in data set [2] (after 4 weeks) was “◯ (Total score of 10 panelists is 25 or more)” in each case. The “Residual Rate” value in data set [3] (setting [5]), in data set [3] (setting [6]), in data set [3] (setting [7]) and in data set [3] (setting [8]) was “⊚ (95% or more)” each time.
For `CC(C)CCCCCCCCCCCCCCC(=O)OCC(OC(=O)CCCCCCCCCCCCCCC(C)C)C1OC(=O)C2=C1OCCO2` (stereo not drawn) [Synthesis Example 32, 5,6-O-diisostearoyl-2,3-O-(1,2-ethanediyl) ascorbic acid], the Odor entry is given as “◯ (Total score of 10 panelists is 25 or more)” in data set [1] (after 2 weeks) and “Δ (Total score of 10 panelists is 16-24)” in data set [1] (after 4 weeks). In addition, the Coloration entry in data set [2] (after 2 weeks) and in data set [2] (after 4 weeks) was “◯ (Total score of 10 panelists is 25 or more)” each time. For the same compound, the “Residual Rate” value in data set [3] (setting [5]), in data set [3] (setting [6]), in data set [3] (setting [7]) and in data set [3] (setting [8]) was “⊚ (95% or more)” in each case.
In the case of `O=C1O[C@H]([C@@H](O)CO)C(OCC(O)CO)=C1OCC(O)CO` (stereo partly drawn) [Bisglyceryl ascorbic acid, reference compound], the remaining at 336 h was ≥ 80% in data set [4] (pH 3, 50° C.); ≥ 80% in data set [4] (pH 5, 50° C.); < 30% in data set [4] (pH 7, 50° C.); < 30% in data set [4] (pH 8, 50° C.); < 30% in data set [4] (pH 9, 50° C.). In addition, the remaining at 672 h was ≥ 80% in data set [4] (pH 3, 50° C.); ≥ 80% in data set [4] (pH 5, 50° C.); < 30% in data set [4] (pH 7, 50° C.); < 30% in data set [4] (pH 8, 50° C.); < 30% in data set [4] (pH 9, 50° C.).
Turning to `CCCCCCCCCCCCCCCC(=O)OCC(OC(=O)CCC)C1OC(=O)C2=C1OCCCO2` (stereo not drawn) [Synthesis Example 30, 5-O-butanoyl-6-O-palmitoyl-2,3-O-(1,3-propanediyl) ascorbic acid], the Odor entry in data set [1] (after 2 weeks) is given as “◯ (Total score of 10 panelists is 25 or more)”; in data set [1] (after 4 weeks), “Δ (Total score of 10 panelists is 16-24)”. Besides, the Coloration result in data set [2] (after 2 weeks) and in data set [2] (after 4 weeks) was “◯ (Total score of 10 panelists is 25 or more)” in each case. Also, the “Residual Rate” value in data set [3] (setting [5]), in data set [3] (setting [6]), in data set [3] (setting [7]) and in data set [3] (setting [8]) was “⊚ (95% or more)” each time.
